{"source": "patent US20180296503A1", "about": "(priority 2014, published 2018)", "key": {"rd10^+/+ mice [1]": {"system": "rd10^+/+ mice", "assay": "Scotopic, photopic and low background photopic electroretinograms (ERGs) in rd10+/+ mice given drug in drinking water", "format": "in vivo", "settings": "for mean peak scotopic ERG b-wave amplitude compared with controls: vs controls", "description": "Scotopic and photopic electroretinograms (ERGs) were recorded at P35. Scotopic, photopic and low background photopic ERGs were recorded at P50."}, "[2]": {"settings": "humans; oral dose of 600 mg; cited from earlier work"}, "[3]": {"settings": "oral formulations; cited from earlier work"}, "rd10^+/+ mice [4]": {"system": "rd10^+/+ mice", "assay": "Cone density in PNA-stained retinal flat mounts of rd10+/+ mice at P50", "format": "in vivo", "settings": "for cone cell density compared to NAC-treated mice: P50, four quadrants"}, "[5]": {"target": "glutamate cysteine ligase (GCL, EC 6.3.2.2)", "settings": "nonallosteric competitive inhibition of GCL; cited from earlier work"}, "[6]": {"settings": "same oral dose or substantially lower dose than NAC, rd10+/+ mice"}}}
{"molecule": "CC(=O)N[C@@H](CS)C(=O)O", "note": "[NAC, N-acetyl-L-cysteine]", "values": [{"measurement": "mean peak scotopic ERG b-wave amplitude compared with controls", "setting": "rd10^+/+ mice [1]; P50, 20 mg/ml NAC", "value": "sustained higher amplitudes"}, {"measurement": "time after administration at which no NAC is detectable", "setting": "[2]", "value": "10 to 12", "unit": "h"}, {"measurement": "systemic bioavailability", "setting": "[3]", "value": "< 10", "unit": "%"}]}
{"molecule": "CC(=O)N[C@@H](CS)C(N)=O", "values": [{"measurement": "protecting retinal function (FIGS. 1A to 1E)", "setting": "rd10^+/+ mice [1]; 7 mg/ml NACA vs 7 mg/ml NAC", "value": "better effects"}, {"measurement": "protecting retinal function (FIGS. 3A to 3E)", "setting": "rd10^+/+ mice [1]; 7 mg/ml NACA vs 20 mg/ml NAC", "value": "better effects"}, {"measurement": "mean peak scotopic ERG b-wave amplitude compared with 20 mg/ml NAC", "setting": "rd10^+/+ mice [1]; P35, 7 mg/ml NACA vs 20 mg/ml NAC", "value": "similar"}, {"measurement": "mean peak photopic b-wave amplitude, higher than in NAC-treated mice", "setting": "rd10^+/+ mice [1]; P35, 7 mg/ml NACA vs 20 mg/ml NAC, p=0.024", "value": 41, "unit": "%"}, {"measurement": "mean scotopic b-wave amplitudes compared with NAC-treated mice", "setting": "rd10^+/+ mice [1]; P50, 7 mg/ml NACA vs 20 mg/ml NAC, at 10 of 11 stimulus intensities", "value": "significantly greater"}, {"measurement": "mean photopic ERG b-wave amplitude, higher than in NAC-treated mice", "setting": "rd10^+/+ mice [1]; P50, 7 mg/ml NACA vs 20 mg/ml NAC, at all 3 stimulus intensities, p=0.001", "value": 50, "unit": "%"}, {"measurement": "mean peak scotopic ERG b-wave amplitude compared with controls", "setting": "rd10^+/+ mice [1]; P50, 7 mg/ml NACA", "value": "sustained higher amplitudes"}, {"measurement": "preservation of cone cell function compared with NAC", "setting": "rd10^+/+ mice [1]; [6]", "value": "significantly greater preservation"}, {"measurement": "protecting cone cell survival (FIGS. 2A to 2M)", "setting": "rd10^+/+ mice [4]; 7 mg/ml NACA vs 7 mg/ml NAC", "value": "better effects"}, {"measurement": "protecting cone cell survival (FIGS. 4A to 4M)", "setting": "rd10^+/+ mice [4]; 7 mg/ml NACA vs 20 mg/ml NAC", "value": "better effect"}, {"measurement": "cone cell density compared to NAC-treated mice", "setting": "rd10^+/+ mice [4]; 7 mg/ml NACA vs 7 mg/ml NAC, p<0.0001 by ANOVA with Dunnett's correction", "value": "significantly greater in 3 of 4 quadrants"}, {"measurement": "cone cell density compared to NAC-treated mice", "setting": "rd10^+/+ mice [4]; 7 mg/ml NACA vs 20 mg/ml NAC", "value": "significantly greater in 2 of 4 quadrants"}, {"measurement": "preservation of cone survival compared with NAC", "setting": "rd10^+/+ mice [4]; [6]", "value": "significantly greater preservation"}]}
{"molecule": "N[C@@H](CCC(=O)N[C@@H](CS)C(=O)NCC(=O)O)C(=O)O", "note": "[GSH, c-L-glutamyl-L-cysteinyl-glycine]", "values": [{"measurement": "Ki", "setting": "[5]", "value": 2.3, "unit": "mM"}]}
